Drawing on the kinase profiling compilation of Christmann-Franck et al. (2016), this text covers residual activity for 3 compounds.

MAP3K11 (human), sequence (Q16584 whole entry, looked up): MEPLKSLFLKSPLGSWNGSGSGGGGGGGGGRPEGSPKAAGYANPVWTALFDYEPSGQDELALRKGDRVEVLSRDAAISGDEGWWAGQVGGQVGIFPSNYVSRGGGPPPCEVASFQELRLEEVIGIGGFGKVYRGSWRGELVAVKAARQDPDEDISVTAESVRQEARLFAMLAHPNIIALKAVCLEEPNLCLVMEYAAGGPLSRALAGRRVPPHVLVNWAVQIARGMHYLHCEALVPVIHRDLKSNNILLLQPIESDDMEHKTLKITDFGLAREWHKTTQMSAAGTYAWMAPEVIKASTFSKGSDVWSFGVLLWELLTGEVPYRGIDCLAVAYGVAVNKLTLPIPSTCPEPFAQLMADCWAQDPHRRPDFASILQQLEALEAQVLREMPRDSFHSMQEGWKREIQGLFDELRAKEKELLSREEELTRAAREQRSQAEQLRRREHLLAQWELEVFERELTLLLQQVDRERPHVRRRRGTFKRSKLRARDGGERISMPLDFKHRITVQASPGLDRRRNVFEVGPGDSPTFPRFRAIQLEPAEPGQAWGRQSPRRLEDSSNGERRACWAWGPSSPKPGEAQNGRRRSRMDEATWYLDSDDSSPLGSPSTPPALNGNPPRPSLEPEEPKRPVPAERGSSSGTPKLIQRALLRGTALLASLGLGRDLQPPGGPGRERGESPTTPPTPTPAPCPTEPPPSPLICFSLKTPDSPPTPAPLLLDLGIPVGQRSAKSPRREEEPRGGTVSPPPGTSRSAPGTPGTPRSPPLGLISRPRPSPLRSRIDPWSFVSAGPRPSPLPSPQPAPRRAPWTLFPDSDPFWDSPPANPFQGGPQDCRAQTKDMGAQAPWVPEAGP
PRKCI (human), sequence (P41743 whole entry, looked up): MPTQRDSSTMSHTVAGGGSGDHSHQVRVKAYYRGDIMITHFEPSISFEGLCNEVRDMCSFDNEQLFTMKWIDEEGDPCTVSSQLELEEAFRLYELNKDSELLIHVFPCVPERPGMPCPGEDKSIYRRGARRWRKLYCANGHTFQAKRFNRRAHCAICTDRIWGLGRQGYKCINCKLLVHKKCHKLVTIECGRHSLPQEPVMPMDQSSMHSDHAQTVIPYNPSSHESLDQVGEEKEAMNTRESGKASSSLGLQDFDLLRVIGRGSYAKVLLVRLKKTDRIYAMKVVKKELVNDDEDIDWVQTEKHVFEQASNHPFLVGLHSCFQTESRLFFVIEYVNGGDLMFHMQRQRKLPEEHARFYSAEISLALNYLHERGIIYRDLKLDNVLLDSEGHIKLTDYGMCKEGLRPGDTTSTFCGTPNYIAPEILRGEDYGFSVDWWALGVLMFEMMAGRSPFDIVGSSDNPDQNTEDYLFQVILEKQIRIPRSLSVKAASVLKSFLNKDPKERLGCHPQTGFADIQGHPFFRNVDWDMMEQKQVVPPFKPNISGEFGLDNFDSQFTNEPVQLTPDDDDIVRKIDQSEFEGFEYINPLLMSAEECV
STK25 (human), sequence (O00506 whole entry, looked up): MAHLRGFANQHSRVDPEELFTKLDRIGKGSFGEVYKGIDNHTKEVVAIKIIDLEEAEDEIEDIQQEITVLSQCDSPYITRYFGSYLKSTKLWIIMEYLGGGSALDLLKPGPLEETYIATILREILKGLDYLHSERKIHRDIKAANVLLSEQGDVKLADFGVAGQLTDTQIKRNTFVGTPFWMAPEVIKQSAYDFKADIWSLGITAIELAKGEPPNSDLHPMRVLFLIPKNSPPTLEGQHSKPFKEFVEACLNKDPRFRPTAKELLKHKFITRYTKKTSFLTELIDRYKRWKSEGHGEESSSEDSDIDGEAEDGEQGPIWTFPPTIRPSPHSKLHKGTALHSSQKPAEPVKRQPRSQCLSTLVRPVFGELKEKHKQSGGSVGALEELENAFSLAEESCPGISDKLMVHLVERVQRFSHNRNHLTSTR

The first assay has as its target MAP3K11 (human) (UniProt Q16584). Briefly: radiometric filter-binding kinase assay, Kinase HotSpot. Conditions: compound 0.5 µM; ATP 10 µM.
In the case of `CC(C)c1nn(-c2c(Cl)cccc2Cl)c2nc(Cc3ccc(OCCO)cc3)nc(O)c12`, the residual activity – broadly, the signal under treatment as a percentage of the control signal – is 101%.

`COc1cc2ncc(-c3ccccc3)nc2cc1OC`: the residual activity came out at 86.8%.

As to `CN([C@@H](Cc1ccc(OS(=O)(=O)c2cccc3cnccc23)cc1)C(=O)N1CCN(c2ccccc2)CC1)S(=O)(=O)c1cccc2cnccc12`, the residual activity was found to be 105%.

Another assay deals with MAPK14 (human) (UniProt Q16539). Described as above. Conditions: compound 0.5 µM; ATP 10 µM.
MAPK14 (human), sequence (Q16539 whole entry, looked up): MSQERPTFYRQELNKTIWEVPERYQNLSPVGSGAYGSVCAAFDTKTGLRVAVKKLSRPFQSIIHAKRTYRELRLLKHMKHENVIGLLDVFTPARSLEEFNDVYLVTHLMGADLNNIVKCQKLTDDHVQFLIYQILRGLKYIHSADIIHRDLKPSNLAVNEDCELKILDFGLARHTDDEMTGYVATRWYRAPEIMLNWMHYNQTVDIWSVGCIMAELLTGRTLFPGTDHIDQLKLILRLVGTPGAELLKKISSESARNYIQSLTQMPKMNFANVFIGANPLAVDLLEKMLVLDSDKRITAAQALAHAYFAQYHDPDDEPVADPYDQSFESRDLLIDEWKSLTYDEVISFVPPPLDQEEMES
Turning to `CC(C)c1nn(-c2c(Cl)cccc2Cl)c2nc(Cc3ccc(OCCO)cc3)nc(O)c12`, the residual activity is 96.8%.

With `COc1cc2ncc(-c3ccccc3)nc2cc1OC`, the residual activity amounted to 122%.

In the case of `CN([C@@H](Cc1ccc(OS(=O)(=O)c2cccc3cnccc23)cc1)C(=O)N1CCN(c2ccccc2)CC1)S(=O)(=O)c1cccc2cnccc12`, the residual activity was found to be 91%.

In the next assay the target is MARK4 (human) (UniProt Q96L34). Described as above. Particulars: compound 0.5 µM; ATP 10 µM.
MARK4 (human), sequence (Q96L34 whole entry, looked up): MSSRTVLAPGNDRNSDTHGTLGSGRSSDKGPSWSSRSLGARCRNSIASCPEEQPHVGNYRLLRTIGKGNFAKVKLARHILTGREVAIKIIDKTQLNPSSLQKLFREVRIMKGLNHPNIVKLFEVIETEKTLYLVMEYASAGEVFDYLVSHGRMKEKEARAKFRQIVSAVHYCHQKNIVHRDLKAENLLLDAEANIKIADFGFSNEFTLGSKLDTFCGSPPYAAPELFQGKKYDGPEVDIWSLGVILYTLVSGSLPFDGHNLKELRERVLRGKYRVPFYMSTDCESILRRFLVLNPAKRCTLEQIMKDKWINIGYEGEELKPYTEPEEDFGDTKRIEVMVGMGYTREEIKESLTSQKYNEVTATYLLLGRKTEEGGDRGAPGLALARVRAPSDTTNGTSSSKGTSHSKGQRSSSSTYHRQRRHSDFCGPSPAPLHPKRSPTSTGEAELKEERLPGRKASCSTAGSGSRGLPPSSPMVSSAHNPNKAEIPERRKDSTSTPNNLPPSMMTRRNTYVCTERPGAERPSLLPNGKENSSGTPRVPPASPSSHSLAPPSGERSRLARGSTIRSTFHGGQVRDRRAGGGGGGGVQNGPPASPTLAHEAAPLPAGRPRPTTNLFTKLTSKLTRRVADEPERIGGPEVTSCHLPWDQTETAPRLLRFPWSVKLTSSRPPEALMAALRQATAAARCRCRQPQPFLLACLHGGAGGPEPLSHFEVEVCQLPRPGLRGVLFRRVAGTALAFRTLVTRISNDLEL
As for `CC(C)c1nn(-c2c(Cl)cccc2Cl)c2nc(Cc3ccc(OCCO)cc3)nc(O)c12`, the residual activity was 99.5%.

`COc1cc2ncc(-c3ccccc3)nc2cc1OC`: the residual activity stood at 85.3%.

Regarding `CN([C@@H](Cc1ccc(OS(=O)(=O)c2cccc3cnccc23)cc1)C(=O)N1CCN(c2ccccc2)CC1)S(=O)(=O)c1cccc2cnccc12`, the residual activity came to 98.8%.

In a further assay the target is MATK (human) (UniProt P42679). Described as above. Conditions: compound 0.5 µM; ATP 10 µM.
MATK (human), sequence (P42679 whole entry, looked up): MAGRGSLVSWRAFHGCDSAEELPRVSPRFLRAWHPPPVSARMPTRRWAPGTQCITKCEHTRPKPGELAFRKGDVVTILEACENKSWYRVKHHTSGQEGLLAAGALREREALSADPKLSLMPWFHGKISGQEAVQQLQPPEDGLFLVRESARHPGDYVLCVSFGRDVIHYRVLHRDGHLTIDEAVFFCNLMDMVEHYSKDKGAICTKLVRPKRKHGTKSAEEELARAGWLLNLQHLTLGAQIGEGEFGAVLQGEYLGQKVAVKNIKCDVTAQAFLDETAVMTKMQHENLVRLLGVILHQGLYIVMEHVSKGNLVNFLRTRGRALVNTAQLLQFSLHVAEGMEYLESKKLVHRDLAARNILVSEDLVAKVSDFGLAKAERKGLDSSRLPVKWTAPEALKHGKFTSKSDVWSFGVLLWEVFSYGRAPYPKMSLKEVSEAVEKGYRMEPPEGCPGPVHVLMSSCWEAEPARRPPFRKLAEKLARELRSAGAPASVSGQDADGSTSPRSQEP
Take `CC(C)c1nn(-c2c(Cl)cccc2Cl)c2nc(Cc3ccc(OCCO)cc3)nc(O)c12`: the residual activity was 91.1%.

Take `COc1cc2ncc(-c3ccccc3)nc2cc1OC`: the residual activity was 101%.

`CN([C@@H](Cc1ccc(OS(=O)(=O)c2cccc3cnccc23)cc1)C(=O)N1CCN(c2ccccc2)CC1)S(=O)(=O)c1cccc2cnccc12`: the residual activity was found to be 94.8%.

In a further assay the target is MERTK (human) (UniProt Q12866). The assay is described as above. Particulars: compound 0.5 µM; ATP 10 µM.
MERTK (human), sequence (Q12866 whole entry, looked up): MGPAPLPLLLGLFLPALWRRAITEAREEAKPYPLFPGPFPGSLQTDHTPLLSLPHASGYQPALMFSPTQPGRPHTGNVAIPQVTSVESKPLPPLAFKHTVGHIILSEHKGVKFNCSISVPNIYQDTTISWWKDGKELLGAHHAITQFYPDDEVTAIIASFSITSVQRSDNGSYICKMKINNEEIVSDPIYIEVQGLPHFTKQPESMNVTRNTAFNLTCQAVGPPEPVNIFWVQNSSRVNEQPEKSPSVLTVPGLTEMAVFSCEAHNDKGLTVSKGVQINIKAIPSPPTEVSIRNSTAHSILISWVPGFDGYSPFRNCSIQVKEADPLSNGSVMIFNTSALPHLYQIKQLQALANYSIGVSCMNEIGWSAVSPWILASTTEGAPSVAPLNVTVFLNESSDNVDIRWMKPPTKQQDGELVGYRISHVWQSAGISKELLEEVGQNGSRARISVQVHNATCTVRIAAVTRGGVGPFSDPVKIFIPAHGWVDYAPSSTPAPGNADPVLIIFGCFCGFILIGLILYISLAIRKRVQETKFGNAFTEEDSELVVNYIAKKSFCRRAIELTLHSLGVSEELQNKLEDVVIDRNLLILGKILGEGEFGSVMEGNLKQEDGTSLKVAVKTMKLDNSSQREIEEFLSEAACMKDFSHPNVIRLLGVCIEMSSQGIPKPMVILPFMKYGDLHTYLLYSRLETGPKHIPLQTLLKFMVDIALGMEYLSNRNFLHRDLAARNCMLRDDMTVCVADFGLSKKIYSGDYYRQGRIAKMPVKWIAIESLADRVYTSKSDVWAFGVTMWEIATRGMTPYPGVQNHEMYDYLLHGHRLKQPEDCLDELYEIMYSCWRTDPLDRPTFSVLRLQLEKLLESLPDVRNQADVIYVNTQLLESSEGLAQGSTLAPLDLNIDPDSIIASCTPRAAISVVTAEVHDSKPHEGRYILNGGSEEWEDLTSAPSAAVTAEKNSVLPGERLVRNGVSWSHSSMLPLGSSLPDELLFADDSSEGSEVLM
Turning to `CC(C)c1nn(-c2c(Cl)cccc2Cl)c2nc(Cc3ccc(OCCO)cc3)nc(O)c12`, the residual activity was 96.1%.

With `COc1cc2ncc(-c3ccccc3)nc2cc1OC`, the residual activity stood at 80%.

Take `CN([C@@H](Cc1ccc(OS(=O)(=O)c2cccc3cnccc23)cc1)C(=O)N1CCN(c2ccccc2)CC1)S(=O)(=O)c1cccc2cnccc12`: the residual activity was found to be 100%.

The next assay deals with MINK1 (human) (UniProt Q8N4C8). Described as above. Particulars: compound 0.5 µM; ATP 10 µM.
For `CC(C)c1nn(-c2c(Cl)cccc2Cl)c2nc(Cc3ccc(OCCO)cc3)nc(O)c12`, the residual activity came out at 97.1%.

With `COc1cc2ncc(-c3ccccc3)nc2cc1OC`, the residual activity worked out at 93.5%.

On to `CN([C@@H](Cc1ccc(OS(=O)(=O)c2cccc3cnccc23)cc1)C(=O)N1CCN(c2ccccc2)CC1)S(=O)(=O)c1cccc2cnccc12`, for which the residual activity came to 98.2%.

A further assay has as its target NEK1 (human) (UniProt Q96PY6). Described as above. Particulars: compound 0.5 µM; ATP 10 µM.
Regarding `CC(C)c1nn(-c2c(Cl)cccc2Cl)c2nc(Cc3ccc(OCCO)cc3)nc(O)c12`, the residual activity turned out to be 90.9%.

`COc1cc2ncc(-c3ccccc3)nc2cc1OC`: the residual activity came to 95.9%.

Turning to `CN([C@@H](Cc1ccc(OS(=O)(=O)c2cccc3cnccc23)cc1)C(=O)N1CCN(c2ccccc2)CC1)S(=O)(=O)c1cccc2cnccc12`, the residual activity turned out to be 102%.

The target in a further assay is NEK3 (human) (UniProt P51956). Described as above. Particulars: compound 0.5 µM; ATP 10 µM.
NEK3 (human), sequence (P51956 whole entry, looked up): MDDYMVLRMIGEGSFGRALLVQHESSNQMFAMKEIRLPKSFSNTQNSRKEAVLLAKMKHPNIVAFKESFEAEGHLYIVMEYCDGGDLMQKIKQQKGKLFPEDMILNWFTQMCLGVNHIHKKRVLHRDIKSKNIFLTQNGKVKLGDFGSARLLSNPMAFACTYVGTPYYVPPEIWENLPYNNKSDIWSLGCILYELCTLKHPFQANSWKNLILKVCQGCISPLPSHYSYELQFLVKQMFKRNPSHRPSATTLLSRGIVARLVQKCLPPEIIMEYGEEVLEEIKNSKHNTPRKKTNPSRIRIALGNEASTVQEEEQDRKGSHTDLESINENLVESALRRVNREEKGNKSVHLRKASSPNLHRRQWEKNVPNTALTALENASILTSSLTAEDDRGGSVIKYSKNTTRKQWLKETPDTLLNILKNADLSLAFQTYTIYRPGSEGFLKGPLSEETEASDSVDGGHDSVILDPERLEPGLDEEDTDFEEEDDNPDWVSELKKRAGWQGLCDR
Regarding `CC(C)c1nn(-c2c(Cl)cccc2Cl)c2nc(Cc3ccc(OCCO)cc3)nc(O)c12`, the residual activity turned out to be 87.3%.

Regarding `COc1cc2ncc(-c3ccccc3)nc2cc1OC`, the residual activity stood at 90.5%.

Consider `CN([C@@H](Cc1ccc(OS(=O)(=O)c2cccc3cnccc23)cc1)C(=O)N1CCN(c2ccccc2)CC1)S(=O)(=O)c1cccc2cnccc12`, for which the residual activity turned out to be 99.8%.

Another assay deals with PAK1 (human) (UniProt Q13153). The assay is described as above. Particulars: compound 0.5 µM; ATP 10 µM.
As for `CC(C)c1nn(-c2c(Cl)cccc2Cl)c2nc(Cc3ccc(OCCO)cc3)nc(O)c12`, the residual activity was 89.7%.

Consider `COc1cc2ncc(-c3ccccc3)nc2cc1OC`, for which the residual activity came to 91.3%.

For `CN([C@@H](Cc1ccc(OS(=O)(=O)c2cccc3cnccc23)cc1)C(=O)N1CCN(c2ccccc2)CC1)S(=O)(=O)c1cccc2cnccc12`, the residual activity worked out at 95.7%.

For a further assay, the target named is PBK (human) (UniProt Q96KB5). The description is as above. Particulars: compound 0.5 µM; ATP 10 µM.
`CC(C)c1nn(-c2c(Cl)cccc2Cl)c2nc(Cc3ccc(OCCO)cc3)nc(O)c12`: the residual activity amounted to 101%.

For the compound `COc1cc2ncc(-c3ccccc3)nc2cc1OC`, the residual activity came out at 85.5%.

Take `CN([C@@H](Cc1ccc(OS(=O)(=O)c2cccc3cnccc23)cc1)C(=O)N1CCN(c2ccccc2)CC1)S(=O)(=O)c1cccc2cnccc12`: the residual activity was determined as 99.2%.

For a further assay, the target named is PHKG1 (human) (UniProt Q16816). The assay is described as above. Conditions: compound 0.5 µM; ATP 10 µM.
Consider `CC(C)c1nn(-c2c(Cl)cccc2Cl)c2nc(Cc3ccc(OCCO)cc3)nc(O)c12`, for which the residual activity stood at 87%.

For `COc1cc2ncc(-c3ccccc3)nc2cc1OC`, the residual activity came to 92.4%.

Take `CN([C@@H](Cc1ccc(OS(=O)(=O)c2cccc3cnccc23)cc1)C(=O)N1CCN(c2ccccc2)CC1)S(=O)(=O)c1cccc2cnccc12`: the residual activity is 93.4%.

Another assay deals with PKN2 (human) (UniProt Q16513). Described as above. Conditions: compound 0.5 µM; ATP 10 µM.
With `CC(C)c1nn(-c2c(Cl)cccc2Cl)c2nc(Cc3ccc(OCCO)cc3)nc(O)c12`, the residual activity was 97.5%.

Take `COc1cc2ncc(-c3ccccc3)nc2cc1OC`: the residual activity was 88.3%.

`CN([C@@H](Cc1ccc(OS(=O)(=O)c2cccc3cnccc23)cc1)C(=O)N1CCN(c2ccccc2)CC1)S(=O)(=O)c1cccc2cnccc12`: the residual activity was 98.6%.

The next assay concerns the target PRKCI (human) (UniProt P41743). The assay is described as above. Conditions: compound 0.5 µM; ATP 10 µM.
In the case of `CC(C)c1nn(-c2c(Cl)cccc2Cl)c2nc(Cc3ccc(OCCO)cc3)nc(O)c12`, the residual activity worked out at 95.2%.

As for `COc1cc2ncc(-c3ccccc3)nc2cc1OC`, the residual activity stood at 82.1%.

`CN([C@@H](Cc1ccc(OS(=O)(=O)c2cccc3cnccc23)cc1)C(=O)N1CCN(c2ccccc2)CC1)S(=O)(=O)c1cccc2cnccc12`: the residual activity is 93.8%.

A further assay addresses PRKD1 (human) (UniProt Q15139). The assay is described as above. Particulars: compound 0.5 µM; ATP 10 µM.
Consider `CC(C)c1nn(-c2c(Cl)cccc2Cl)c2nc(Cc3ccc(OCCO)cc3)nc(O)c12`, for which the residual activity amounted to 103%.

`COc1cc2ncc(-c3ccccc3)nc2cc1OC`: the residual activity amounted to 93.3%.

For the compound `CN([C@@H](Cc1ccc(OS(=O)(=O)c2cccc3cnccc23)cc1)C(=O)N1CCN(c2ccccc2)CC1)S(=O)(=O)c1cccc2cnccc12`, the residual activity was determined as 101%.

For a further assay, the target named is PRKD2 (human) (UniProt Q9BZL6). Described as above. Particulars: compound 0.5 µM; ATP 10 µM.
On to `CC(C)c1nn(-c2c(Cl)cccc2Cl)c2nc(Cc3ccc(OCCO)cc3)nc(O)c12`, for which the residual activity was 88.4%.

Turning to `COc1cc2ncc(-c3ccccc3)nc2cc1OC`, the residual activity came to 93.8%.

As to `CN([C@@H](Cc1ccc(OS(=O)(=O)c2cccc3cnccc23)cc1)C(=O)N1CCN(c2ccccc2)CC1)S(=O)(=O)c1cccc2cnccc12`, the residual activity was found to be 100%.

Another assay addresses SLK (human) (UniProt Q9H2G2). The description is as above. Conditions: compound 0.5 µM; ATP 10 µM.
As to `CC(C)c1nn(-c2c(Cl)cccc2Cl)c2nc(Cc3ccc(OCCO)cc3)nc(O)c12`, the residual activity is 86.9%.

For the compound `COc1cc2ncc(-c3ccccc3)nc2cc1OC`, the residual activity is 97.3%.

In the case of `CN([C@@H](Cc1ccc(OS(=O)(=O)c2cccc3cnccc23)cc1)C(=O)N1CCN(c2ccccc2)CC1)S(=O)(=O)c1cccc2cnccc12`, the residual activity came out at 101%.

A further assay has as its target STK25 (human) (UniProt O00506). Described as above. Conditions: compound 0.5 µM; ATP 10 µM.
On to `CC(C)c1nn(-c2c(Cl)cccc2Cl)c2nc(Cc3ccc(OCCO)cc3)nc(O)c12`, for which the residual activity came to 68.1%.

Regarding `COc1cc2ncc(-c3ccccc3)nc2cc1OC`, the residual activity came out at 90.7%.

Regarding `CN([C@@H](Cc1ccc(OS(=O)(=O)c2cccc3cnccc23)cc1)C(=O)N1CCN(c2ccccc2)CC1)S(=O)(=O)c1cccc2cnccc12`, the residual activity worked out at 98.8%.

The next assay concerns the target TEK (human) (UniProt Q02763). The description is as above. Particulars: compound 0.5 µM; ATP 10 µM.
As for `CC(C)c1nn(-c2c(Cl)cccc2Cl)c2nc(Cc3ccc(OCCO)cc3)nc(O)c12`, the residual activity stood at 100%.

Consider `COc1cc2ncc(-c3ccccc3)nc2cc1OC`, for which the residual activity came to 85.7%.

`CN([C@@H](Cc1ccc(OS(=O)(=O)c2cccc3cnccc23)cc1)C(=O)N1CCN(c2ccccc2)CC1)S(=O)(=O)c1cccc2cnccc12`: the residual activity came to 106%.

The next assay has as its target TSSK2 (human) (UniProt Q96PF2). The assay is described as above. Conditions: compound 0.5 µM; ATP 10 µM.
For `CC(C)c1nn(-c2c(Cl)cccc2Cl)c2nc(Cc3ccc(OCCO)cc3)nc(O)c12`, the residual activity amounted to 105%.

Consider `COc1cc2ncc(-c3ccccc3)nc2cc1OC`, for which the residual activity stood at 85.7%.

As to `CN([C@@H](Cc1ccc(OS(=O)(=O)c2cccc3cnccc23)cc1)C(=O)N1CCN(c2ccccc2)CC1)S(=O)(=O)c1cccc2cnccc12`, the residual activity stood at 105%.

For another assay, the target named is WEE1 (human) (UniProt P30291). The description is as above. Particulars: compound 0.5 µM; ATP 10 µM.
`CC(C)c1nn(-c2c(Cl)cccc2Cl)c2nc(Cc3ccc(OCCO)cc3)nc(O)c12`: the residual activity turned out to be 109%.

With `COc1cc2ncc(-c3ccccc3)nc2cc1OC`, the residual activity is 82.8%.

With `CN([C@@H](Cc1ccc(OS(=O)(=O)c2cccc3cnccc23)cc1)C(=O)N1CCN(c2ccccc2)CC1)S(=O)(=O)c1cccc2cnccc12`, the residual activity worked out at 87.7%.

A further assay has as its target WNK2 (human) (UniProt Q9Y3S1). The assay is described as above. Conditions: compound 0.5 µM; ATP 10 µM.
Regarding `CC(C)c1nn(-c2c(Cl)cccc2Cl)c2nc(Cc3ccc(OCCO)cc3)nc(O)c12`, the residual activity was determined as 95.7%.

For `COc1cc2ncc(-c3ccccc3)nc2cc1OC`, the residual activity stood at 104%.

On to `CN([C@@H](Cc1ccc(OS(=O)(=O)c2cccc3cnccc23)cc1)C(=O)N1CCN(c2ccccc2)CC1)S(=O)(=O)c1cccc2cnccc12`, for which the residual activity came to 100%.
